{
  "source": "PubChem BioAssay AID1918930",
  "about": "(Molecular Pharmacology Branch, DTP, NCI, 2023)",
  "system": "233499-124-R-J3-PDC complex spheroid viability, % test/control",
  "assay": "Anticancer human tumor 233499-124-R-J3-PDC patient-derived colon adenocarcinoma cell line growth inhibition",
  "details": "for pIC50: curve of first compound; for viability, T/C: stronger effect = lower value",
  "procedure,_shortened": "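Drug combinations with the LSD1 inhibitor iadademstat tested on tumor cells co-cultured as spheroids with endothelial cells and mesenchymal stem cells. Concentrations descended in half-log increments from clinical Cmax or 10 microM.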",
  "key": {"[1]": {"details": "second compound 0.1 µM, first compound 0.0316 µM"}, "[2]": {"details": "second compound 0.1 µM, first compound 0.1 µM"}, "[3]": {"details": "second compound 0.1 µM, first compound 0.316 µM"}, "[4]": {"details": "second compound 0.1 µM, first compound 1 µM"}, "[5]": {"details": "second compound 0.1 µM, first compound 3.16 µM"}, "[6]": {"details": "second compound 0.1 µM, first compound 10 µM"}, "[7]": {"details": "second compound 0.316 µM, first compound 0.0316 µM"}, "[8]": {"details": "second compound 0.316 µM, first compound 0.1 µM"}, "[9]": {"details": "second compound 0.316 µM, first compound 0.316 µM"}, "[10]": {"details": "second compound 0.316 µM, first compound 1 µM"}, "[11]": {"details": "second compound 0.316 µM, first compound 3.16 µM"}, "[12]": {"details": "second compound 0.316 µM, first compound 10 µM"}, "[13]": {"details": "second compound 1 µM, first compound 0.0316 µM"}, "[14]": {"details": "second compound 1 µM, first compound 0.1 µM"}, "[15]": {"details": "second compound 1 µM, first compound 0.316 µM"}, "[16]": {"details": "second compound 1 µM, first compound 1 µM"}, "[17]": {"details": "second compound 1 µM, first compound 3.16 µM"}, "[18]": {"details": "second compound 1 µM, first compound 10 µM"}, "[19]": {"details": "second compound 3.16 µM, first compound 0.0316 µM"}, "[20]": {"details": "second compound 3.16 µM, first compound 0.1 µM"}, "[21]": {"details": "second compound 3.16 µM, first compound 0.316 µM"}, "[22]": {"details": "second compound 3.16 µM, first compound 1 µM"}, "[23]": {"details": "second compound 3.16 µM, first compound 3.16 µM"}, "[24]": {"details": "second compound 3.16 µM, first compound 10 µM"}, "[25]": {"details": "second compound 10 µM, first compound 0.0316 µM"}, "[26]": {"details": "second compound 10 µM, first compound 0.1 µM"}, "[27]": {"details": "second compound 10 µM, first compound 0.316 µM"}, "[28]": {"details": "second compound 10 µM, first compound 1 µM"}, "[29]": {"details": "second compound 10 µM, first compound 3.16 µM"}, "[30]": {"details": "second compound 10 µM, first compound 10 µM"}},
  "note": "pIC50: −log10 of the molar value.",
  "data": [
    {"molecule": "CC1COCCN1c1cc(C2(S(C)(=N)=O)CC2)nc(-c2ccnc3[nH]ccc23)n1", "note": "(stereo not given) + NC1CCC(NC2CC2c2ccccc2)CC1;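 further: spheroids exposed to agents for one week before readout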", "values": [
      {"measurement": "pIC50", "setting": "second compound 0.1 µM", "value": "< 5.00"},
      {"measurement": "pIC50", "setting": "second compound 0.316 µM", "value": "< 5.00"},
      {"measurement": "pIC50", "setting": "second compound 1 µM", "value": "< 5.00"},
      {"measurement": "pIC50", "setting": "second compound 3.16 µM", "value": "< 5.00"},
      {"measurement": "pIC50", "setting": "second compound 10 µM", "value": 5.86},
      {"measurement": "viability, T/C", "setting": "[1]", "value": 105, "unit": "%"},
      {"measurement": "viability, T/C", "setting": "[2]", "value": 91.5, "unit": "%"},
      {"measurement": "viability, T/C", "setting": "[3]", "value": 87.8, "unit": "%"},
      {"measurement": "viability, T/C", "setting": "[4]", "value": 82.8, "unit": "%"},
      {"measurement": "viability, T/C", "setting": "[5]", "value": 62.6, "unit": "%"},
      {"measurement": "viability, T/C", "setting": "[6]", "value": 59.9, "unit": "%"},
      {"measurement": "viability, T/C", "setting": "[7]", "value": 102, "unit": "%"},
      {"measurement": "viability, T/C", "setting": "[8]", "value": 98.8, "unit": "%"},
      {"measurement": "viability, T/C", "setting": "[9]", "value": 95.8, "unit": "%"},
      {"measurement": "viability, T/C", "setting": "[10]", "value": 100, "unit": "%"},
      {"measurement": "viability, T/C", "setting": "[11]", "value": 90, "unit": "%"},
      {"measurement": "viability, T/C", "setting": "[12]", "value": 58.1, "unit": "%"},
      {"measurement": "viability, T/C", "setting": "[13]", "value": 98.8, "unit": "%"},
      {"measurement": "viability, T/C", "setting": "[14]", "value": 78.5, "unit": "%"},
      {"measurement": "viability, T/C", "setting": "[15]", "value": 84.3, "unit": "%"},
      {"measurement": "viability, T/C", "setting": "[16]", "value": 66.3, "unit": "%"},
      {"measurement": "viability, T/C", "setting": "[17]", "value": 63.4, "unit": "%"},
      {"measurement": "viability, T/C", "setting": "[18]", "value": 65, "unit": "%"},
      {"measurement": "viability, T/C", "setting": "[19]", "value": 79.5, "unit": "%"},
      {"measurement": "viability, T/C", "setting": "[20]", "value": 92.4, "unit": "%"},
      {"measurement": "viability, T/C", "setting": "[21]", "value": 80, "unit": "%"},
      {"measurement": "viability, T/C", "setting": "[22]", "value": 67.8, "unit": "%"},
      {"measurement": "viability, T/C", "setting": "[23]", "value": 61.7, "unit": "%"},
      {"measurement": "viability, T/C", "setting": "[24]", "value": 51.6, "unit": "%"},
      {"measurement": "viability, T/C", "setting": "[25]", "value": 81.4, "unit": "%"},
      {"measurement": "viability, T/C", "setting": "[26]", "value": 71.3, "unit": "%"},
      {"measurement": "viability, T/C", "setting": "[27]", "value": 80.9, "unit": "%"},
      {"measurement": "viability, T/C", "setting": "[28]", "value": 52.5, "unit": "%"},
      {"measurement": "viability, T/C", "setting": "[29]", "value": 43.9, "unit": "%"},
      {"measurement": "viability, T/C", "setting": "[30]", "value": 43.3, "unit": "%"}
    ]},
    {"molecule": "COc1ccc([C@@H](O)c2cc(-c3ncnc4cc(N5CCOCC5)ccc34)c(F)cc2Cl)nn1", "note": "+ NC1CCC(NC2CC2c2ccccc2)CC1", "values": [
      {"measurement": "pIC50", "setting": "second compound 0.1 µM", "value": 5.38},
      {"measurement": "pIC50", "setting": "second compound 0.316 µM", "value": 5.43},
      {"measurement": "pIC50", "setting": "second compound 1 µM", "value": 5.40},
      {"measurement": "pIC50", "setting": "second compound 3.16 µM", "value": 5.40},
      {"measurement": "pIC50", "setting": "second compound 10 µM", "value": 5.55},
      {"measurement": "viability, T/C", "setting": "[1]", "value": 102, "unit": "%"},
      {"measurement": "viability, T/C", "setting": "[2]", "value": 82.3, "unit": "%"},
      {"measurement": "viability, T/C", "setting": "[3]", "value": 86.9, "unit": "%"},
      {"measurement": "viability, T/C", "setting": "[4]", "value": 81.8, "unit": "%"},
      {"measurement": "viability, T/C", "setting": "[5]", "value": 62.4, "unit": "%"},
      {"measurement": "viability, T/C", "setting": "[6]", "value": 12.6, "unit": "%"},
      {"measurement": "viability, T/C", "setting": "[7]", "value": 102, "unit": "%"},
      {"measurement": "viability, T/C", "setting": "[8]", "value": 96.8, "unit": "%"},
      {"measurement": "viability, T/C", "setting": "[9]", "value": 86.7, "unit": "%"},
      {"measurement": "viability, T/C", "setting": "[10]", "value": 79.8, "unit": "%"},
      {"measurement": "viability, T/C", "setting": "[11]", "value": 58.4, "unit": "%"},
      {"measurement": "viability, T/C", "setting": "[12]", "value": 10.8, "unit": "%"},
      {"measurement": "viability, T/C", "setting": "[13]", "value": 94.4, "unit": "%"},
      {"measurement": "viability, T/C", "setting": "[14]", "value": 79.2, "unit": "%"},
      {"measurement": "viability, T/C", "setting": "[15]", "value": 64.7, "unit": "%"},
      {"measurement": "viability, T/C", "setting": "[16]", "value": 74.1, "unit": "%"},
      {"measurement": "viability, T/C", "setting": "[17]", "value": 64, "unit": "%"},
      {"measurement": "viability, T/C", "setting": "[18]", "value": 12.8, "unit": "%"},
      {"measurement": "viability, T/C", "setting": "[19]", "value": 85.4, "unit": "%"},
      {"measurement": "viability, T/C", "setting": "[20]", "value": 83.8, "unit": "%"},
      {"measurement": "viability, T/C", "setting": "[21]", "value": 75.2, "unit": "%"},
      {"measurement": "viability, T/C", "setting": "[22]", "value": 67.5, "unit": "%"},
      {"measurement": "viability, T/C", "setting": "[23]", "value": 65.3, "unit": "%"},
      {"measurement": "viability, T/C", "setting": "[24]", "value": 9.45, "unit": "%"},
      {"measurement": "viability, T/C", "setting": "[25]", "value": 92.6, "unit": "%"},
      {"measurement": "viability, T/C", "setting": "[26]", "value": 95.1, "unit": "%"},
      {"measurement": "viability, T/C", "setting": "[27]", "value": 63.1, "unit": "%"},
      {"measurement": "viability, T/C", "setting": "[28]", "value": 57.4, "unit": "%"},
      {"measurement": "viability, T/C", "setting": "[29]", "value": 65.9, "unit": "%"},
      {"measurement": "viability, T/C", "setting": "[30]", "value": 11.2, "unit": "%"}
    ]}
  ]
}
